{"source": "patent US20160281133A1", "about": "“STABILIZATION AND ISOLATION OF EXTRACELLULAR NUCLEIC ACIDS” (QIAGEN GMBH, priority 2013, published 2016)", "origin": "cited, not measured here", "key": {"caspase-10": {"target": "T1, caspase-10 (Homo sapiens, UniProt Q92851)", "T1 sequence (Q92851 220-415 limits assumed)": "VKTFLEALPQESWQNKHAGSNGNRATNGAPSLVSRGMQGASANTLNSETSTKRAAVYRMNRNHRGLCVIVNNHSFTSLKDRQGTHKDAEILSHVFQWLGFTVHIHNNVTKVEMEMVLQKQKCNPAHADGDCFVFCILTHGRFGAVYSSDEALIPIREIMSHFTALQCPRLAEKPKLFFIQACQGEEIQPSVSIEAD", "T1 sequence (Q92851 416-521 limits assumed)": "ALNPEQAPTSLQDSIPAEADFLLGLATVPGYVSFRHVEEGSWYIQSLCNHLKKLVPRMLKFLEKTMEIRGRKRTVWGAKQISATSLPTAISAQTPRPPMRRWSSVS", "settings": "value type not repeated in the cell; cited from earlier work"}, "caspase-1 [1]": {"target": "T2, caspase-1 (Homo sapiens, UniProt P29466)", "T2 sequence (P29466 120-297 limits assumed)": "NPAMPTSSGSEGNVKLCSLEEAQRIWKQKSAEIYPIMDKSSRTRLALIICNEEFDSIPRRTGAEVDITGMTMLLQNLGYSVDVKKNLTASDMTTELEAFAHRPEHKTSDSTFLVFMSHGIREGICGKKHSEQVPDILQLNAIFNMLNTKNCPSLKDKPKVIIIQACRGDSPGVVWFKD", "T2 sequence (P29466 317-404 limits assumed)": "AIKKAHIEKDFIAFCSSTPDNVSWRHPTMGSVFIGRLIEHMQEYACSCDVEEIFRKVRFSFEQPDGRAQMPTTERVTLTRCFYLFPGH", "settings": "cited from earlier work"}, "anthrax lethal factor": {"target": "anthrax lethal factor (Bacillus anthracis, UniProt P15917)", "sequence (P15917 34-809 limits assumed)": "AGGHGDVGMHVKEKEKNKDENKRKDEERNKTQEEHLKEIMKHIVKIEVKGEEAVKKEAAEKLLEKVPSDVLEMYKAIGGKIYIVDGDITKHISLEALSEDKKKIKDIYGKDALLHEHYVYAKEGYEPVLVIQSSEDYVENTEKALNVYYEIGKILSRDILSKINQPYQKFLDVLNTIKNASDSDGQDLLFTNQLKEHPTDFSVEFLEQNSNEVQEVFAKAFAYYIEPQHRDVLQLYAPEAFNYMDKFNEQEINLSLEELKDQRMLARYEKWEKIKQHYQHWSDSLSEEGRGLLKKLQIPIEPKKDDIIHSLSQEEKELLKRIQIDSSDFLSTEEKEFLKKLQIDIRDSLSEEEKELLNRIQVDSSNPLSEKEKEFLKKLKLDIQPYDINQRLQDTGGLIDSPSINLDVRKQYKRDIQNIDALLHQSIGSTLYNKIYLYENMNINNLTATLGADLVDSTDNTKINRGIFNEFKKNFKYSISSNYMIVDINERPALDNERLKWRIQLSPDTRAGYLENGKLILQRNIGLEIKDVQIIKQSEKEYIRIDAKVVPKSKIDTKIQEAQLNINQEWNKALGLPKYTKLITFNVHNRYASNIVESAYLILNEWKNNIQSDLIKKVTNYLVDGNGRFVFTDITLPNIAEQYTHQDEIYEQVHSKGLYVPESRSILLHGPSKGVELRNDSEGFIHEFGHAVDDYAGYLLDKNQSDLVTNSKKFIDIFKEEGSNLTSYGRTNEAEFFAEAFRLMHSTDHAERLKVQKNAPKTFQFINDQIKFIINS", "settings": "cited from earlier work"}, "caspase-8": {"target": "caspase-8 (Homo sapiens, UniProt Q14790)", "sequence (Q14790 217-374 limits assumed, species assumed)": "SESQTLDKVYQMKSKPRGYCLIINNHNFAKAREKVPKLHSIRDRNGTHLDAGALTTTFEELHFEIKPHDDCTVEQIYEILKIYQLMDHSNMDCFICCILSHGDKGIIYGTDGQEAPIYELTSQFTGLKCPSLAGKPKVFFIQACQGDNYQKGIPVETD", "sequence (Q14790 385-479 limits assumed, species assumed)": "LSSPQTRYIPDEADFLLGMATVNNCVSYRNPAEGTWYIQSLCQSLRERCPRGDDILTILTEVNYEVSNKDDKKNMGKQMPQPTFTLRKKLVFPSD", "settings": "cited from earlier work"}, "[2]": {"settings": "in neuron culture medium at 37° C.; cited from earlier work"}, "[3]": {"system": "etoposide-induced cortical neuron death", "settings": "cited from earlier work"}, "COX-2": {"system": "COX-2", "settings": "cited from earlier work"}, "COX-1": {"target": "COX-1 (Homo sapiens, UniProt P23219)", "sequence (P23219 24-599)": "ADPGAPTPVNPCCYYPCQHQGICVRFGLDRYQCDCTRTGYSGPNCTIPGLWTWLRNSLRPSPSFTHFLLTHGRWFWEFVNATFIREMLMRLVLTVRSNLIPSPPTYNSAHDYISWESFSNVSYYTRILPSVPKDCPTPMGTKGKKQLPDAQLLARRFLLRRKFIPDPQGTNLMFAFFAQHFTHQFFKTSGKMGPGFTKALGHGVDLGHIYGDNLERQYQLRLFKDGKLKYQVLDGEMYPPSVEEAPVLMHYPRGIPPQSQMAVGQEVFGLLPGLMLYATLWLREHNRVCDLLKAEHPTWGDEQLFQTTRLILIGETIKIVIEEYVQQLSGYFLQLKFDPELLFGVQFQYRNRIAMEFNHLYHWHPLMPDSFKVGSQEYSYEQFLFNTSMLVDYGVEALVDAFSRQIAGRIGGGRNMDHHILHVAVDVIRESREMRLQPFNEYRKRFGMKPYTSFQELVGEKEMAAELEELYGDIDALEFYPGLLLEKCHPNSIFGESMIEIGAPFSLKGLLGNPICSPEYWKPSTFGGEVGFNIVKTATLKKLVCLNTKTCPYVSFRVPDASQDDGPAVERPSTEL", "settings": "cited from earlier work"}, "Bax-mediated apoptosis": {"system": "Bax-mediated apoptosis", "settings": "functions as effectively as Caspase Inhibitor VI (Z-VAD-FMK); cited from earlier work"}, "caspase-1 [4]": {"target": "T2, caspase-1", "settings": "cited from earlier work", "remark": "listed apart in the source"}, "proliferation": {"system": "proliferation", "settings": "cited from earlier work"}, "[5]": {"system": "TNF-induced inhibition of DNA synthesis", "settings": "cited from earlier work"}, "[6]": {"system": "TNF-induced PMN-EC adhesion", "settings": "cited from earlier work"}, "PKC": {"system": "PKC", "settings": "cited from earlier work"}, "PI3K": {"system": "PI3K", "settings": "cited from earlier work"}, "LDH % release": {"system": "LDH % release", "settings": "cited from earlier work"}, "caspase-2": {"target": "T3, caspase-2 (Homo sapiens, UniProt P42575)", "T3 sequence (P42575 170-325 limits assumed)": "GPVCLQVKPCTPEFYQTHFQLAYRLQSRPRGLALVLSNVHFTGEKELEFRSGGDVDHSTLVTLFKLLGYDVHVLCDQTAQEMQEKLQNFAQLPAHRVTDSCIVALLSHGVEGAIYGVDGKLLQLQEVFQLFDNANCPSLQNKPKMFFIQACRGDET", "T3 sequence (P42575 348-452 limits assumed)": "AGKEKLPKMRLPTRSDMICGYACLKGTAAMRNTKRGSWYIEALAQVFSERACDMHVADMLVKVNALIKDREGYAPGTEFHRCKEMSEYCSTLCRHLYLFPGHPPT", "settings": "cited from earlier work"}, "caspase-7": {"target": "T4, caspase-7 (Homo sapiens, UniProt P55210)", "T4 sequence (P55210 24-198 limits assumed)": "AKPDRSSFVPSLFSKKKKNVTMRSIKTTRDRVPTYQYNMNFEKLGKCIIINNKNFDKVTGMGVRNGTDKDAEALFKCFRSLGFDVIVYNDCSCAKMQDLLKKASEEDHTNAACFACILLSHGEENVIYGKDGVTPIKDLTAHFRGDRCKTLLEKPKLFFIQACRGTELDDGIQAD", "T4 sequence (P55210 207-303 limits assumed)": "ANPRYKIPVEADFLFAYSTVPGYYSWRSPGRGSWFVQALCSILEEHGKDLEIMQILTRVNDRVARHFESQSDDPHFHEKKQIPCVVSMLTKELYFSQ", "settings": "cited from earlier work"}, "caspase-3": {"target": "T5, caspase-3 (Homo sapiens, UniProt P42574)", "T5 sequence (P42574 29-175 limits assumed)": "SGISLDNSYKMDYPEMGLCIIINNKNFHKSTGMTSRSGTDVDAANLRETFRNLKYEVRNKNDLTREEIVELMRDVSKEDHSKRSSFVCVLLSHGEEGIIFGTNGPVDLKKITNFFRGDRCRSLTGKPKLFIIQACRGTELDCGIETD", "T5 sequence (P42574 176-277 limits assumed)": "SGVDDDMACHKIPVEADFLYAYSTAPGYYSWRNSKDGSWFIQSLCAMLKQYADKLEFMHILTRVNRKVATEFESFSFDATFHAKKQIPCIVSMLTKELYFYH", "settings": "cited from earlier work"}, "myocardial infarct size": {"system": "myocardial infarct size", "settings": "during reperfusion; cited from earlier work"}, "[7]": {"target": "T6, Omi/HtrA2 (His-Omi134-458) (Homo sapiens, UniProt O43464)", "T6 construct": "His-Omi134-458; His (N)", "T6 sequence (O43464 134-458)": "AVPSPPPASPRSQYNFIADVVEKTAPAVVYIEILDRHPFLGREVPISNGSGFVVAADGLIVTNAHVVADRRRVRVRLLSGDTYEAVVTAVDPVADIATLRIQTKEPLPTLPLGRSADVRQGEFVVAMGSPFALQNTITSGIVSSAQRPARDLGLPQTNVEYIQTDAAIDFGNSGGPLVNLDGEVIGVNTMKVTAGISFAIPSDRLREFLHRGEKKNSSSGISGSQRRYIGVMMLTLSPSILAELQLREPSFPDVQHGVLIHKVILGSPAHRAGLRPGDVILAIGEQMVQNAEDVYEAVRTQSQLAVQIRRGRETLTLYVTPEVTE", "settings": "for His-Omi134-458; cited from earlier work"}, "[8]": {"system": "various other serine proteases", "settings": "cited from earlier work"}, "Stat3": {"target": "Stat3 (Homo sapiens, UniProt P40763)", "sequence (P40763 whole entry, species assumed)": "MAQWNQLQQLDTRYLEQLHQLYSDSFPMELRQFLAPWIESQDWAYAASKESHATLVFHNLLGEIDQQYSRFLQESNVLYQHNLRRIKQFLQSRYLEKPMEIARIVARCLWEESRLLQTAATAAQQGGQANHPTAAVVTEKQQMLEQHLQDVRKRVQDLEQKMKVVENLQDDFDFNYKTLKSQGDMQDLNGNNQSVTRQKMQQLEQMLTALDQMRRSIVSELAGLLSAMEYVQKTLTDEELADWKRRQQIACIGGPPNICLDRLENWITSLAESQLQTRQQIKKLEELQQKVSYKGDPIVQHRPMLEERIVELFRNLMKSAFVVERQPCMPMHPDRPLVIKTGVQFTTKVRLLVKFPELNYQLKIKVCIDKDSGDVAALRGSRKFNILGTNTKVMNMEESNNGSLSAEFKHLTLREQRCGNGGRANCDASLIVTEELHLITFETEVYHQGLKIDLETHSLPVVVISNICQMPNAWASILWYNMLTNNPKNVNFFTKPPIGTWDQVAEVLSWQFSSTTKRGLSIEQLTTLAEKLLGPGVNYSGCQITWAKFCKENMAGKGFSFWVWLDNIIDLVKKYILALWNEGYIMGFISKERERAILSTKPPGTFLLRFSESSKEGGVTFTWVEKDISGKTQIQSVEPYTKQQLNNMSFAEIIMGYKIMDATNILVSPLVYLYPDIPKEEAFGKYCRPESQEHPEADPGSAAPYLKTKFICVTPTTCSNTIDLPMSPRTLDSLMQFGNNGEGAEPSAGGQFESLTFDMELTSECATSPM", "settings": "read-out: DB50 (concentration of peptide at which DNA-binding activity is inhibited by 50%); cited from earlier work"}, "pancreatic duct cells": {"system": "pancreatic duct cells", "settings": "cited from earlier work"}, "calpain II": {"target": "T7, calpain II (Homo sapiens, UniProt P17655)", "T7 sequence (P17655 1-700)": "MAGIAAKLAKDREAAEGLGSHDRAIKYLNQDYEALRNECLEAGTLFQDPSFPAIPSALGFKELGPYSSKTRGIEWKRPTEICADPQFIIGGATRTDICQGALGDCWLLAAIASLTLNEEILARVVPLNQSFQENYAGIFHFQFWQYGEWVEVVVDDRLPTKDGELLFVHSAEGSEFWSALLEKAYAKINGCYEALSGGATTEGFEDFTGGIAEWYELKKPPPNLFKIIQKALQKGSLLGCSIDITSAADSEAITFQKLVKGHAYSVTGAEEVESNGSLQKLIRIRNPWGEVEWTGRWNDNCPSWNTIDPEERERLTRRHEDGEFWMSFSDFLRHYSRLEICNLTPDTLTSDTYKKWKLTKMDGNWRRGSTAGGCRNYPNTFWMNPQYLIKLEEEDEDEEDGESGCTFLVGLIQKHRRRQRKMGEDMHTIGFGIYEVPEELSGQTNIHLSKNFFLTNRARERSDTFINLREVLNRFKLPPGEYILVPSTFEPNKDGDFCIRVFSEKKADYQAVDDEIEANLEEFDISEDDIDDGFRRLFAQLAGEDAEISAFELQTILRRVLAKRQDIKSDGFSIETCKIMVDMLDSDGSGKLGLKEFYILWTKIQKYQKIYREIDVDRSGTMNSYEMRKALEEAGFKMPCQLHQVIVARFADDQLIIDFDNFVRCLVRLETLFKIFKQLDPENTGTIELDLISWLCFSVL", "T7 sequence (P04632 1-268 partner)": "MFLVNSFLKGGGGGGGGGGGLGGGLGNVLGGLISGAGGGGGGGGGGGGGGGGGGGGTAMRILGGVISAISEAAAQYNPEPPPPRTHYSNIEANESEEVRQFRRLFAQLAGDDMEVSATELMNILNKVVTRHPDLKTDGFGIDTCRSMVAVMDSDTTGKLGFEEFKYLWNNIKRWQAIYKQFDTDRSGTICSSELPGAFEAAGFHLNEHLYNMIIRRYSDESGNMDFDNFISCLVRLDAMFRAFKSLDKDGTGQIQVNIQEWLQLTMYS", "settings": "cited from earlier work"}, "cathepsin L": {"target": "cathepsin L (Homo sapiens, UniProt P07711)", "sequence (P07711 114-333, species assumed)": "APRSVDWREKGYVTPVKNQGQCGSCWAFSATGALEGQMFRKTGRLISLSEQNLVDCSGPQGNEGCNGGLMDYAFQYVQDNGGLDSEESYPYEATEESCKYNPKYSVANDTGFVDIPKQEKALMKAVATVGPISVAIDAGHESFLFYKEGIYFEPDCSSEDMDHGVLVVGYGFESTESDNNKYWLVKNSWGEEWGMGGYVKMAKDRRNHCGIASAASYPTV", "settings": "cited from earlier work"}, "calpain I": {"target": "calpain I (Homo sapiens, UniProt P07384)", "sequence (P07384 whole entry, one chain of several)": "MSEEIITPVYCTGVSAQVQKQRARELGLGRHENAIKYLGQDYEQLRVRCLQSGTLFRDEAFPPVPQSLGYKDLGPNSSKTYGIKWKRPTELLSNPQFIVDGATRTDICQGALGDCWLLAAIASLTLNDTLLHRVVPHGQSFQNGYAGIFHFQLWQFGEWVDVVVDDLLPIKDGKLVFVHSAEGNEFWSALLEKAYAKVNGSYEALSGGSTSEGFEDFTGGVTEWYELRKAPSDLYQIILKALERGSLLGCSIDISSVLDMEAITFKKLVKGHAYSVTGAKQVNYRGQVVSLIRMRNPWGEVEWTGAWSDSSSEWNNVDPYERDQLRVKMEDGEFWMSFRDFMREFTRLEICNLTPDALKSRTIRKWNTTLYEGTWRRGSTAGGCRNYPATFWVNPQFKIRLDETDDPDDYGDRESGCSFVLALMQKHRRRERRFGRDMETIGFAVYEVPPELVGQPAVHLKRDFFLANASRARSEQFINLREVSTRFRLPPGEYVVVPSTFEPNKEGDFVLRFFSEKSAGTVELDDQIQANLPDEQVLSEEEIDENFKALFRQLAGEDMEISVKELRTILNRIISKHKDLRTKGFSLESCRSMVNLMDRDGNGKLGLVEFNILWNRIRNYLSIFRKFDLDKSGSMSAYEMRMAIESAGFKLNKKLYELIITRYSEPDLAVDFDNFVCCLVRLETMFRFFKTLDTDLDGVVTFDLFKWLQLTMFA", "settings": "cited from earlier work"}}, "note": "Like-named read-outs stand apart in the source and are kept apart here. Where a SMILES comes first, the peptide text is derived from it. [ ]: non-standard residue; d: D form. Nle = CCCC[CH](N)C(=O)O", "data": [{"molecule": "Ac-Ile-Glu-Thr-Asp-CHO (Ac-IETD-aldehyde) [Granzyme B Inhibitor II]", "values": [{"measurement": "Ki", "setting": "caspase-10", "result": 27, "unit": "nM"}, {"measurement": "Ki", "setting": "caspase-1 [1]", "result": "< 6", "unit": "nM"}]}, {"molecule": "FC(F)(F)c1cccc(-c2csc(C3COc4ccccc4O3)n2)c1", "note": "(stereo not shown) [Caspase Inhibitor X]", "values": [{"measurement": "effect on activity of anthrax lethal factor", "setting": "anthrax lethal factor", "result": "assisted cleavage of BID, a proapoptotic protein. Weakly affects"}, {"measurement": "Ki", "setting": "caspase-8", "result": 2700, "unit": "nM"}]}, {"molecule": "O=[N+]([O-])c1ccc(-c2cn3c4c(sc3n2)CCCC4)cc1", "note": "[Pifithrin-α, p-Nitro, Cyclic]", "values": [{"measurement": "longer half-life than Pifithrin-α", "setting": "[2]", "result": 50, "unit": "%"}, {"measurement": "t½", "setting": "[2]", "result": 6, "unit": "h"}, {"measurement": "higher potency than Pifithrin-α", "setting": "[3]", "result": "A cell-permeable p53 inhibitor that exhibits 10-fold higher potency"}]}, {"molecule": "O=c1c(O)c(-c2ccc(O)cc2)oc2cc(O)cc(O)c12", "note": "[Kaempferol]", "values": [{"measurement": "IC50", "setting": "COX-2", "result": "< 15000", "unit": "nM"}, {"measurement": "IC50", "setting": "COX-1", "result": 180000, "unit": "nM"}]}, {"molecule": "H-Val-Pro-Met-Leu-Lys-OH (H-VPMLK-OH) [Bax-Inhibiting Peptide, V5]", "values": [{"measurement": "concentration effective for Bax-mediated apoptosis", "setting": "Bax-mediated apoptosis", "result": "mediated apoptosis (~50-200 μM). Also effectively blocks caspase-"}]}, {"molecule": "Ac-Tyr-Val-Ala-Asp-CHO [Caspase-1 Inhibitor I]", "values": [{"measurement": "Ki", "setting": "caspase-1 [4]", "result": 0.2, "unit": "nM"}]}, {"molecule": "O=c1c(O)c(-c2ccc(O)c(O)c2)oc2cc(O)cc(O)c12", "note": "[Quercetin(Sophoretin), Quercetin]", "values": [{"measurement": "IC50", "setting": "proliferation", "result": 11400, "unit": "nM"}, {"measurement": "IC50", "setting": "[5]", "result": 6100, "unit": "nM"}, {"measurement": "IC50", "setting": "[6]", "result": 16700, "unit": "nM"}, {"measurement": "IC50", "setting": "PKC", "result": "15 μg/ml. It strongly abrogated PI3K and Src kinases, mildly"}, {"measurement": "IC50", "setting": "PI3K", "result": 3800, "unit": "nM"}, {"measurement": "IC50", "setting": "LDH % release", "result": 800, "unit": "nM"}]}, {"molecule": "Ac-Val-Asp-Val-Ala-Asp-CHO (Ac-VDVAD-aldehyde) [Caspase Inhibitor VIII]", "values": [{"measurement": "Ki", "setting": "caspase-2", "result": 3.5, "unit": "nM"}, {"measurement": "Ki", "setting": "caspase-7", "result": 7.5, "unit": "nM"}, {"measurement": "Ki", "setting": "caspase-3", "result": 1, "unit": "nM"}]}, {"molecule": "Ac-Leu-Glu-His-Asp-CMK (LEHD; HELM PEPTIDE1{[ac].L.E.H.D.[ClC[*:1]]}$$$$V2.0; SMILES CC(=O)N[C@@H](CC(C)C)C(=O)N[C@@H](CCC(=O)O)C(=O)N[C@@H](Cc1c[nH]cn1)C(=O)N[C@@H](CC(=O)O)C(=O)CCl) [Caspase-9 Inhibitor III]", "values": [{"measurement": "concentration reported to reduce myocardial infarct size", "setting": "myocardial infarct size", "result": "myocardial infarct size during reperfusion (~70 nM)."}]}, {"molecule": "O=C1C(=Cc2ccc(-c3ccccc3[N+](=O)[O-])o2)C(=O)N(c2ccccc2)C(=S)N1c1ccccc1", "note": "[Omi/HtrA2 Protease Inhibitor, Ucf-101]", "values": [{"measurement": "IC50", "setting": "[7]", "result": 9500, "unit": "nM"}, {"measurement": "IC50", "setting": "[8]", "result": "≥ 200000", "unit": "nM"}]}, {"molecule": "Ac-Pro-Tyr(PO3H2)-Leu-Lys-Thr-Lys-OH (PYLKTK; HELM PEPTIDE1{[ac].P.[O=C([C@H](Cc1ccc(OP(=O)(O)O)cc1)N[*:1])[*:2]].L.K.T.K}$$$$V2.0; SMILES CC(=O)N1CCC[C@H]1C(=O)N[C@@H](Cc1ccc(OP(=O)(O)O)cc1)C(=O)N[C@@H](CC(C)C)C(=O)N[C@@H](CCCCN)C(=O)N[C@H](C(=O)N[C@@H](CCCCN)C(=O)O)[C@@H](C)O) [STAT3 Inhibitor Peptide]", "values": [{"measurement": "IC50", "setting": "Stat3", "result": 235000, "unit": "nM"}]}, {"molecule": "CCN1C(=O)C=CC1=O", "note": "[N-Ethylmaleimide]", "values": [{"measurement": "IC50", "setting": "pancreatic duct cells", "result": 22000, "unit": "nM"}]}, {"molecule": "CCCCC(C=O)NC(=O)C(CC(C)C)NC(=O)C(CC(C)C)NC(C)=O", "note": "(stereo not drawn) [Ac-Leu-Leu-Nle-al] (Ac-Leu-Leu-[Nle]-aldehyde; configuration not given here)", "values": [{"measurement": "Ki", "setting": "calpain II", "result": 150, "unit": "nM"}, {"measurement": "Ki", "setting": "cathepsin L", "result": 0.5, "unit": "nM"}, {"measurement": "Ki", "setting": "calpain I", "result": 190, "unit": "nM"}]}]}
